From US8247211B2, “Glycopeptide antibiotics” (American Cyanamid Company, priority 2001, dated 2012)
Values after ≈ are worked out from the molar mass of the structure shown.

Columns and labels:
Test in all cases: In vitro antibacterial evaluation: minimum inhibitory concentration (MIC), broth dilution method
Type in all cases: cell-based
Escherichia coli = details: 5×10^5 CFU/mL, 18 hours at 35° C.
Method: (§1) The minimum inhibitory concentration (MIC), the lowest concentration of the antibiotic which inhibits growth of the test organism, is determined by the broth dilution method using Muller-Hinton II […] (Baltimore Biological Laboratories) following the recommendations of the National Committee for Clinical Laboratory Standards [Methods for dilution antimicrobial susceptibility tests for bacteria that grow aerobically, approved standard M7-A2, National Committee for Clinical Laboratory Standards, Villanova, Pa].
(§2) An inoculum level of 5×10^5 CFU/mL, and a range of antibiotic concentrations (64-0.06 μg/mL) is used. […] The test organisms include a spectrum of Gram-positive bacteria comprised of Staphylococcus sp., Streptococcus sp. and Enterococcus sp. These organisms include recent clinical isolates that are resistant to methicillin, penicillin and/or vancomycin.

Enterococcus sp. = details: broth dilution, 5×10^5 CFU/mL, 18 hours at 35° C.
Method: as §1, §2

Streptococcus sp. = details: broth dilution, 5×10^5 CFU/mL, 18 hours at 35° C.
Method: as §1, §2

Staphylococcus sp. = details: for MIC Staphylococcus aureus (ATCC 29213): strain ATCC 29213; for MIC Staphylococcus aureus (GC 1131): strain GC 1131; for MIC Staphylococcus aureus (GC 3051): strain GC 3051; for MIC Staphylococcus aureus (GC 3053): strain GC 3053; for MIC Staphylococcus aureus (GC 4541): strain GC 4541; for MIC Staphylococcus aureus (GC 4542): strain GC 4542; for MIC Staphylococcus aureus (GC 4544): strain GC 4544; for MIC Staphylococcus aureus (GC 4545): strain GC 4545
Method: as §1, §2

[1] = broth dilution, 5×10^5 CFU/mL, 18 hours at 35° C.
[2] = broth dilution, 18 hours at 35° C.

MIC Escherichia coli (ATCC 25922) (Escherichia coli): >64 µg/mL
MIC Escherichia coli (GC 4559) (Escherichia coli): >64 µg/mL
MIC Escherichia coli (GC 4560) (Escherichia coli): 32 µg/mL (≈ 22.6 µM)
MIC Enterococccus avium (GC 4558) (Enterococcus sp.): 32 µg/mL (≈ 22.6 µM)
MIC Enterococccus faecalis (ATCC 29212) (Enterococcus sp.): 32 µg/mL (≈ 22.6 µM)
MIC Enterococccus faecalis (GC 2691) (Enterococcus sp.): 32 µg/mL (≈ 22.6 µM)
MIC Enterococccus faecalis (GC 3059) (Enterococcus sp.): 32 µg/mL (≈ 22.6 µM)
MIC Enterococccus faecalis (GC 4552) (Enterococcus sp.): 32 µg/mL (≈ 22.6 µM)
MIC Enterococccus faecalis (GC 4553) (Enterococcus sp.): 32 µg/mL (≈ 22.6 µM)
MIC Enterococccus faecalis (GC 4554) (Enterococcus sp.): 32 µg/mL (≈ 22.6 µM)
MIC Enterococccus faecalis (GC 6189) (Enterococcus sp.): 32 µg/mL (≈ 22.6 µM)
MIC Enterococccus faecium (GC 2243) (Enterococcus sp.): 32 µg/mL (≈ 22.6 µM)
MIC Enterococccus faecium (GC 4556) (Enterococcus sp.): 32 µg/mL (≈ 22.6 µM)
MIC Enterococccus faecium (GC 4557) (Enterococcus sp.): 16 µg/mL (≈ 11.3 µM)
MIC Enterococcus faecalis (GC 2242) (Enterococcus sp.): 32 µg/mL (≈ 22.6 µM)
MIC Streptococcus agalactiae (GC 4564) (Streptococcus sp.): 1 µg/mL (≈ 0.705 µM)
MIC Streptococcus pneumoniae (GC 1894) (Streptococcus sp.): 0.12 µg/mL (≈ 0.0847 µM)
MIC Streptococcus pneumoniae (GC 4565) (Streptococcus sp.): 0.25 µg/mL (≈ 0.176 µM)
MIC Streptococcus pneumonine (ATCC 6301) (Streptococcus sp.): 0.25 µg/mL (≈ 0.176 µM)
MIC Streptococcus pyogenes (GC 4563) (Streptococcus sp.): 0.5 µg/mL (≈ 0.353 µM)
MIC Coagulase Negative Staphylococcus (GC 4547) (Staphylococcus sp.; [1]): 32 µg/mL (≈ 22.6 µM)
MIC Coagulase Negative Staphylococcus (GC 4548) (Staphylococcus sp.; [1]): 32 µg/mL (≈ 22.6 µM)
MIC Coagulase Negative Staphylococcus (GC 4549) (Staphylococcus sp.; [1]): 32 µg/mL (≈ 22.6 µM)
MIC Coagulase Negative Staphylococcus (GC 4551) (Staphylococcus sp.; [1]): 32 µg/mL (≈ 22.6 µM)
MIC Coagulase Negative Staphylococcus (GC 6257) (Staphylococcus sp.; [1]): 32 µg/mL (≈ 22.6 µM)
MIC Staphylococcus aureus-SMITH (GC 4543) (Staphylococcus sp.; [1]): 32 µg/mL (≈ 22.6 µM)
MIC Staphylococcus aureus (ATCC 29213) (Staphylococcus sp.): 32 µg/mL (≈ 22.6 µM)
MIC Staphylococcus aureus (ATCC 29213) (Staphylococcus sp.; [2]): 32 µg/mL (≈ 22.6 µM)
MIC Staphylococcus aureus (GC 1131) (Staphylococcus sp.): 32 µg/mL (≈ 22.6 µM)
MIC Staphylococcus aureus (GC 1131) (Staphylococcus sp.; [2]): 32 µg/mL (≈ 22.6 µM)
MIC Staphylococcus aureus (GC 3051) (Staphylococcus sp.): 32 µg/mL (≈ 22.6 µM)
MIC Staphylococcus aureus (GC 3051) (Staphylococcus sp.; [2]): 32 µg/mL (≈ 22.6 µM)
MIC Staphylococcus aureus (GC 3053) (Staphylococcus sp.): 32 µg/mL (≈ 22.6 µM)
MIC Staphylococcus aureus (GC 3053) (Staphylococcus sp.; [2]): 32 µg/mL (≈ 22.6 µM)
MIC Staphylococcus aureus (GC 4541) (Staphylococcus sp.): 8 µg/mL (≈ 5.64 µM)
MIC Staphylococcus aureus (GC 4541) (Staphylococcus sp.; [2]): 8 µg/mL (≈ 5.64 µM)
MIC Staphylococcus aureus (GC 4542) (Staphylococcus sp.): 32 µg/mL (≈ 22.6 µM)
MIC Staphylococcus aureus (GC 4542) (Staphylococcus sp.; [2]): 32 µg/mL (≈ 22.6 µM)
MIC Staphylococcus aureus-SMITH (GC 4543) (Staphylococcus sp.; strain GC 4543, broth dilution, 18 hours at 35° C.): 32 µg/mL (≈ 22.6 µM)
MIC Staphylococcus aureus (GC 4544) (Staphylococcus sp.): 32 µg/mL (≈ 22.6 µM)
MIC Staphylococcus aureus (GC 4544) (Staphylococcus sp.; [2]): 32 µg/mL (≈ 22.6 µM)
MIC Staphylococcus aureus (GC 4545) (Staphylococcus sp.): 32 µg/mL (≈ 22.6 µM)
MIC Staphylococcus aureus (GC 4545) (Staphylococcus sp.; [2]): 32 µg/mL (≈ 22.6 µM)
MIC Coagulase Negative Staphylococcus (GC 4547) (Staphylococcus sp.; strain GC 4547, broth dilution, 18 hours at 35° C.): 32 µg/mL (≈ 22.6 µM)
MIC Coagulase Negative Staphylococcus (GC 4548) (Staphylococcus sp.; strain GC 4548, broth dilution, 18 hours at 35° C.): 32 µg/mL (≈ 22.6 µM)
MIC Coagulase Negative Staphylococcus (GC 4549) (Staphylococcus sp.; strain GC 4549, broth dilution, 18 hours at 35° C.): 32 µg/mL (≈ 22.6 µM)
MIC Coagulase Negative Staphylococcus (GC 4551) (Staphylococcus sp.; strain GC 4551, broth dilution, 18 hours at 35° C.): 32 µg/mL (≈ 22.6 µM)
MIC Coagulase Negative Staphylococcus (GC 6257) (Staphylococcus sp.; strain GC 6257, broth dilution, 18 hours at 35° C.): 32 µg/mL (≈ 22.6 µM)
SMILES: CC(C)=CCCC(C)C1OCC2OC(OC3C(CO)OC(Oc4ccc(CC5NC(=O)C(C(C)c6ccccc6)NC(=O)CNC(=O)C(CO)NC(=O)C(C(O)C6CNC(=N)N6C6OC(CO)C(O)C(O)C6O)NC(=O)C(C(O)C6CNC(=N)N6)NC5=O)cc4)C(O)C3O)C(O)C(O)C2O1 (stereo not drawn) [Example 125, Cyclo[glycyl-β-methylphenylalanyl-O-[4-O-[4,6-O-[2,6-dimethylhept-5-en-1-yidene)hexopyranosyl]hexopyranosyl]tyrosyl-3-(2-iminoimidazolidin-4-yl)seryl-3-(3-hexopyranosyl-2-iminoimidazolidin-4-yl)serylseryl]]
MIC Staphylococcus haemolyticus (GC 4546) (Staphylococcus sp.; [1]): 32 µg/mL (≈ 22.6 µM)
MIC Staphylococcus haemolyticus (GC 4546) (Staphylococcus sp.; strain GC 4546, broth dilution, 18 hours at 35° C.): 32 µg/mL (≈ 22.6 µM)
